The subject of data set [1] is A. castellanii (ATCC-30868) trophozoites. Description: In vitro anti-Acanthamoeba activity, A. castellanii trophozoite viability. The following applies: for SI, sensitivity index (CC50 C6 glial cells / IC50 A. castellanii): ratio CC50 C6 glial cells / IC50 A. castellanii; for antiamoebic activity against A. castellanii (in words): in vitro. The data set is classed as cell-based.

Data set [2] has as its system C6 rat glial cells (ATCC CCL-107). Description: Cytotoxicity against C6 glial cells. The format is cell-based. The settings on record: for CC50: read-out: C6 glial cells (CC50 ±SD), C6 rat glial cells, 0–400 μM, mean±SD of 3 independent assays.
In data set [3] the test system is Naegleria fowleri trophozoites (Carter NF69 strain, ATCC 30215). The data set is described as follows: In vitro anti-N. fowleri activity, trophozoite viability. The data set is classed as cell-based. The following applies: for SI, sensitivity index (CC50 C6 glial cells / IC50 N. fowleri): ratio CC50 C6 glial cells / IC50 N. fowleri; for antiamoebic activity against N. fowleri (in words): in vitro.

The test system of data set [4] is A. polyphaga (ATCC-30461) trophozoites. The data set is described as follows: In vitro anti-Acanthamoeba activity, A. polyphaga trophozoite viability. The data set is classed as cell-based. The settings on record: for SI, sensitivity index (CC50 C6 glial cells / IC50 A. polyphaga): ratio CC50 C6 glial cells / IC50 A. polyphaga; for antiamoebic activity against A. polyphaga (in words): in vitro.

A short description of data set [5]: Cytotoxicity against C6 glial cells. The data set is classed as cell-based, rat. The following applies: rat, C6 glial cells.
In data set [6] the test system is murine macrophages J774A.1. The following applies: cited from earlier work.
For data set [7], the system named is A. castellanii trophozoites. The settings on record: cited from earlier work.
[8] abbreviates: read-out: A. castellanii (IC50 ±SD), trophozoites, 0–400 μM, 25°C, 48 h, mean±SD of 3 independent experiments.
[9] abbreviates: read-out: N. fowleri (IC50 ±SD), trophozoites, 0–400 μM, 37°C, 48 h, mean±SD of 3 independent experiments.
Where [10] appears, read: read-out: A. polyphaga (IC50 ±SD), trophozoites, 0–400 μM, 25°C, 48 h, mean±SD of 3 independent experiments.
Where [11] appears, read: Acanthamoeba castellanii, ATCC30868, 48 h, read-out: A. castellanii (IC50 ±SD, μM), trophozoites, 0–400 μM, 25°C, 48 h, mean±SD of 3 independent experiments.
Where [12] appears, read: Naegleria fowleri, ATCC30215, 48 h, read-out: N. fowleri (IC50 ±SD, μM), trophozoites, 0–400 μM, 37°C, 48 h, mean±SD of 3 independent experiments.
[13] abbreviates: Acanthamoeba polyphaga, ATCC30461, 48 h, read-out: A. polyphaga (IC50 ±SD, μM), trophozoites, 0–400 μM, 25°C, 48 h, mean±SD of 3 independent experiments.

Read-outs that look alike come from different tables or passages of the source.

As usually defined, the IC50 is the concentration at which inhibition is half-maximal. Broadly, the CC50 is the concentration giving 50% cytotoxicity. On to `Oc1cc(O)c2c(c1)O[C@H](c1cc(O)c(O)c(O)c1)[C@H](O)C2` [(−)-Epigallocatechin, (−)-epigallocatechin], for which the results for the “SI, sensitivity index (CC50 C6 glial cells / IC50 A. castellanii)” value in data set [1] and in data set [1] (listed as (−)-epigallocatechin) were 8.68 and over 8, respectively. For the same compound, the IC50 was 32.1 ± 1.03 µM in data set [1] (setting [8]); under 50 µM in data set [1] (read-out: A. castellanii (IC50 ±SD), trophozoites, 0–400 μM, 25°C, 48 h, mean±SD of 3 independent experiments, listed as (−)-epigallocatechin); 114.6 ± 0.48 µM in data set [3] (setting [9]); 24.16 ± 0.16 µM in data set [4] (setting [10]); under 50 µM in data set [4] (read-out: A. polyphaga (IC50 ±SD), trophozoites, 0–400 μM, 25°C, 48 h, mean±SD of 3 independent experiments, listed as (−)-epigallocatechin). For the same compound, the CC50 in data set [2] was 279 ± 0.3 µM. Further, the “SI, sensitivity index (CC50 C6 glial cells / IC50 N. fowleri)” value in data set [3] came out at 2.44. In addition, the “antiamoebic activity against N. fowleri (in words)” value in data set [3] (trophozoites) is given as “did not show significative anti-N. fowleri activities”. The entries for the “SI, sensitivity index (CC50 C6 glial cells / IC50 A. polyphaga)” value in data set [4] and in data set [4] (listed as (−)-epigallocatechin) were 11.55 and over 8, respectively.
As to `O=c1cc(-c2ccc(O)cc2)oc2cc(O)cc(O)c12` [Apigenin, apigenin], the IC50 is under 50 µM in data set [1] (setting [11]); 43.4 ± 0.8 µM in data set [1] (setting [8]); 94.65 ± 0.58 µM in data set [3] (setting [12]); under 50 µM in data set [4] (setting [13]); 28.33 ± 0.13 µM in data set [4] (setting [10]). Also, the “SI, sensitivity index (CC50 C6 glial cells / IC50 A. castellanii)” value in data set [1] is on record as 5.60. In data set [5], this compound gave a CC50 of 243.1 ± 0.98 µM. Also, the “cytotoxicity to C6 glial cells (in words)” value in data set [2] is “did not show significative cytotoxicity”. In addition, the “cytotoxicity against murine macrophages J774A.1 (in words)” value in data set [6] is “potential cytotoxicity”. Moreover, the “SI, sensitivity index (CC50 C6 glial cells / IC50 N. fowleri)” value in data set [3] came out at 2.57. In data set [3] (trophozoites), the “antiamoebic activity against N. fowleri (in words)” value is “did not show significative anti-N. fowleri activities”. Further, the “SI, sensitivity index (CC50 C6 glial cells / IC50 A. polyphaga)” value in data set [4] was 8.58.
As to `COc1ccc2c(c[n+](C)c3c4cc5c(cc4ccc23)OCO5)c1OC` [Chelerythrine, chelerythrine chloride], the IC50 came out at 148.1 ± 1.38 µM in data set [1] (Acanthamoeba castellanii, ATCC30868, 48 h, read-out: A. castellanii (IC50 ±SD, μM)); 11.8 ± 1.15 µM in data set [3] (Naegleria fowleri, ATCC30215, 48 h, read-out: N. fowleri (IC50 ±SD, μM)); 102 ± 1.4 µM in data set [4] (Acanthamoeba polyphaga, ATCC30461, 48 h, read-out: A. polyphaga (IC50 ±SD, μM)). Further, the “antiamoebic activity against A. castellanii (in words)” value in data set [1] (trophozoites) is “did not exhibit potential or selective antiamoebic activity”. In data set [5], this compound showed a CC50 of 16.4 ± 0.45 µM. The “cytotoxicity to C6 glial cells (in words)” value in data set [2] was “potent cytotoxicity”; in data set [2] (listed as chelerythrine) it was “strong toxicity”. Besides, the “SI, sensitivity index (CC50 C6 glial cells / IC50 N. fowleri)” value in data set [3] turned out to be 1.39. Moreover, the “antiamoebic activity against N. fowleri (in words)” value in data set [3] (trophozoites) is “strong antiamoebic activity”. Further, the “antiamoebic activity against A. polyphaga (in words)” value in data set [4] (trophozoites) was “did not exhibit potential or selective antiamoebic activity”.
For `COc1cc(/C=C/C(O)=C/C(=O)/C=C/c2ccc(O)cc2)ccc1O` [Demethoxycurcumin, demethoxycurcumin], the IC50 in data set [1] (setting [11]) was under 50 µM; in data set [1] (setting [8]), 36.1 ± 0.82 µM; in data set [1] (read-out: A. castellanii (IC50 ±SD), trophozoites, 0–400 μM, 25°C, 48 h, mean±SD of 3 independent experiments, listed as demethoxycurcumin), under 40 µM; in data set [3] (setting [12]), under 30 µM; in data set [3] (setting [9]) it was 27.1 ± 0.35 µM; in data set [3] (read-out: N. fowleri (IC50 ±SD), trophozoites, 0–400 μM, 37°C, 48 h, mean±SD of 3 independent experiments, listed as demethoxycurcumin) it was under 40 µM. Also, the IC50 in data set [4] (setting [10]) is 21.93 ± 0.18 µM; in data set [4] (read-out: A. polyphaga (IC50 ±SD), trophozoites, 0–400 μM, 25°C, 48 h, mean±SD of 3 independent experiments, listed as demethoxycurcumin) it was under 40 µM. In addition, the “SI, sensitivity index (CC50 C6 glial cells / IC50 A. castellanii)” value is recorded as over 8.19 in data set [1] and over 8 in data set [1] (listed as demethoxycurcumin). The CC50 in data set [5] is over 296 µM. Further, in data set [7], the “toxicity to A. castellanii trophozoites (in words)” value is reported as “toxic”. The “SI, sensitivity index (CC50 C6 glial cells / IC50 N. fowleri)” value is listed as over 7 in data set [3] and over 8 in data set [3] (listed as demethoxycurcumin). Moreover, the figures for the “SI, sensitivity index (CC50 C6 glial cells / IC50 A. polyphaga)” value in data set [4] and in data set [4] (listed as demethoxycurcumin) were over 13.48 and over 8, respectively.
In the case of `Oc1ccc(/C=C/c2cc(O)cc(O)c2)cc1` [Resveratrol, resveratrol], the half-inhibitory concentration (IC50) in data set [1] (setting [11]) was under 50 µM; in data set [1] (setting [8]), 40.03 ± 0.39 µM; in data set [3] (setting [12]), 47.19 ± 0.36 µM; in data set [4] (setting [13]) it was under 50 µM; in data set [4] (setting [10]), 31.35 ± 0.08 µM. In addition, in data set [1], the “SI, sensitivity index (CC50 C6 glial cells / IC50 A. castellanii)” value was determined as 5.52. In data set [5], this compound displayed a CC50 of 220.78 ± 0.09 µM. Moreover, the “toxicity to A. castellanii trophozoites (in words)” value in data set [7] is “toxic”. Further, the “SI, sensitivity index (CC50 C6 glial cells / IC50 N. fowleri)” value in data set [3] is 4.68. Also, in data set [4], the “SI, sensitivity index (CC50 C6 glial cells / IC50 A. polyphaga)” value came out at 7.04.
For the compound (+)-pinostrobin, the IC50 in data set [1] (setting [8]), in data set [3] (setting [9]) and in data set [4] (setting [10]) was over 370 µM in each case. Besides, the “antiamoebic activity against A. castellanii (in words)” value in data set [1] (trophozoites) is given as “did not exhibit potential or selective antiamoebic activity”. In addition, in data set [2], the CC50 is over 370 µM. In addition, the “antiamoebic activity against A. polyphaga (in words)” value in data set [4] (trophozoites) was “did not exhibit potential or selective antiamoebic activity”.
As for (±)-catechin hydrate, the IC50 in data set [1] (setting [8]), in data set [3] (setting [9]) and in data set [4] (setting [10]) was over 345 µM throughout. For the same compound, the “antiamoebic activity against A. castellanii (in words)” value in data set [1] (trophozoites) is on record as “did not exhibit potential or selective antiamoebic activity”. Moreover, the CC50 in data set [2] was over 345 µM. Further, the “antiamoebic activity against A. polyphaga (in words)” value in data set [4] (trophozoites) is on record as “did not exhibit potential or selective antiamoebic activity”.
For the compound silybin (A+B) mixture, the “SI, sensitivity index (CC50 C6 glial cells / IC50 A. castellanii)” value in data set [1] was 4.08. The IC50 in data set [1] (setting [8]) was 24.5 ± 0.56 µM; in data set [1] (read-out: A. castellanii (IC50 ±SD), trophozoites, 0–400 μM, 25°C, 48 h, mean±SD of 3 independent experiments, listed as silybin (A+B)) it was under 50 µM; in data set [3] (setting [9]) it was 24.2 ± 0.27 µM; in data set [4] (setting [10]) it was 15.82 ± 0.06 µM; in data set [4] (read-out: A. polyphaga (IC50 ±SD), trophozoites, 0–400 μM, 25°C, 48 h, mean±SD of 3 independent experiments, listed as silybin (A+B)), under 50 µM. The half-maximal cytotoxic concentration (CC50) in data set [2] came out at 99.89 ± 0.78 µM. The “SI, sensitivity index (CC50 C6 glial cells / IC50 N. fowleri)” value in data set [3] was 4.13. Besides, the “SI, sensitivity index (CC50 C6 glial cells / IC50 A. polyphaga)” value in data set [4] was 6.31.

These data come from publication PMC10693969 (Parasites, Hosts and Diseases, 2023).
